Source: the Kinase Knowledgebase extract (Sharma et al. 2016)

molecular target: PIK3CG (human) (UniProt P48736); assay: Inhibition of PIK3CG Kinase Activity
Sequence (P48736 whole entry, looked up): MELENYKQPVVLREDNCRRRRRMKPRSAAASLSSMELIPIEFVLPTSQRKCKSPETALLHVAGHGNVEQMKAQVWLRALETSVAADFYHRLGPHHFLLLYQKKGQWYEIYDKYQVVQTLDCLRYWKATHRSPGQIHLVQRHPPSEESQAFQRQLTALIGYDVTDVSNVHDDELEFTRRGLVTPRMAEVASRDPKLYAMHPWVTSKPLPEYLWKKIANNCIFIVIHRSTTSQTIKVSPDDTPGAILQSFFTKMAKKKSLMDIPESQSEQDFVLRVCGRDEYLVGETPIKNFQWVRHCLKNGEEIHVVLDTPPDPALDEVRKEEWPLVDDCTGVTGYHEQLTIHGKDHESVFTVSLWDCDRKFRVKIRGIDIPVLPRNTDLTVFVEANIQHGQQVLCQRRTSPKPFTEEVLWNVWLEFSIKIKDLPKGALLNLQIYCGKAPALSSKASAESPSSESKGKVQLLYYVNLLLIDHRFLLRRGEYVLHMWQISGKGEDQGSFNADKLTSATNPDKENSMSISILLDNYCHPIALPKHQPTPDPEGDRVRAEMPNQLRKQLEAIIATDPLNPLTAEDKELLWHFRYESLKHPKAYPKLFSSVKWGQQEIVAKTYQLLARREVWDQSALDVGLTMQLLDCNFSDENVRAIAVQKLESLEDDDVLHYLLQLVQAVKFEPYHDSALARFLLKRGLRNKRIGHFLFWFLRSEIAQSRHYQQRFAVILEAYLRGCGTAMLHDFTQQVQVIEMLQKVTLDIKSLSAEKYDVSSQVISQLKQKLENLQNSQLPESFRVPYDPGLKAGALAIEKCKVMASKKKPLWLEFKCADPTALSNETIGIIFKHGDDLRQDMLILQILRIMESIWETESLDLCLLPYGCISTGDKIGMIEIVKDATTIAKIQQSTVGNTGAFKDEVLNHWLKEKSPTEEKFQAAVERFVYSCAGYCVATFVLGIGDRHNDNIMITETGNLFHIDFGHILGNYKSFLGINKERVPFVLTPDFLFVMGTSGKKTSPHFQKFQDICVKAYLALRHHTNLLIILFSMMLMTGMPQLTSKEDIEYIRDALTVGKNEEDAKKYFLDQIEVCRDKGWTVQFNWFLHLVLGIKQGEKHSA

SMILES | IC50 [nM]
CCNC(=O)Nc1nc2c(s1)-c1c(cnn1-c1cccc(F)c1C(F)(F)F)C2 | < 800
CCc1cnc(CCNC(=O)Nc2nc3c(s2)-c2c(cnn2-c2cc(Cl)ccc2Cl)C3)o1 | < 800
Nc1cc(CNC(=O)Nc2nc3c(s2)-c2c(cnn2-c2ccccc2C(F)(F)F)C3)[nH]n1 | < 800
CCc1cc(CC)n(CCNC(=O)Nc2nc3c(s2)-c2c(cnn2-c2ccccc2C(F)(F)F)C3)n1 | < 800
CC(C)(C)OC(=O)NCc1cccc(CNC(=O)Nc2nc3c(s2)-c2c(cnn2-c2ccccc2Cl)C3)c1 | < 800
CCN1CCC2(CCN(C(=O)Nc3nc4c(s3)-c3c(cnn3-c3ccccc3Cl)C4)C2)C1 (centres undefined) | < 800
O=C(NCCc1ccncc1)Nc1nc2c(s1)-c1c(cnn1-c1ccccc1Cl)C2 | < 800
CCCn1cnc(CCNC(=O)Nc2nc3c(s2)-c2c(cnn2-c2ccccc2C(F)(F)F)C3)c1 | < 800
CC(C)(O)Cn1cnc(CCNC(=O)Nc2nc3c(s2)-c2c(cnn2-c2ccccc2C(F)(F)F)C3)c1 | < 800
CC(C)(C)n1nc(CCNC(=O)Nc2nc3c(s2)-c2c(cnn2-c2ccccc2C(F)(F)F)C3)cc1N | < 800
NC(=O)Nc1nc2c(s1)-c1c(cnn1-c1ccccc1Br)C2 | < 800
Cc1cc(=O)n(CCNC(=O)Nc2nc3c(s2)-c2c(cnn2-c2ccccc2C(F)(F)F)C3)[nH]1 | < 800
CCNC(=O)Nc1nc2c(s1)-c1c(cnn1-c1cc(Cl)ccc1Cl)C2 | < 800
Cc1onc(-c2ccccc2)c1CNC(=O)Nc1nc2c(s1)-c1c(cnn1-c1ccccc1C(F)(F)F)C2 | < 800
O=C(NCCN1CCCC1)Nc1nc2c(s1)-c1c(cnn1-c1ccccc1Br)C2 | < 800
Cn1nc(CNC(=O)Nc2nc3c(s2)-c2c(cnn2-c2ccccc2C(F)(F)F)C3)cc1O | < 800
O=C(O)[C@H]1[C@H](c2ccccc2)CCN1C(=O)Nc1nc2c(s1)-c1c(cnn1-c1ccccc1Cl)C2 | < 800
CN1CCC(O)C2(CCCN(C(=O)Nc3nc4c(s3)-c3c(cnn3-c3ccccc3Cl)C4)C2)C1 (centres undefined) | < 800
Cc1nn(C)cc1CNC(=O)Nc1nc2c(s1)-c1c(cnn1-c1ccccc1Cl)C2 | < 800
CCc1noc(CCNC(=O)Nc2nc3c(s2)-c2c(cnn2-c2ccccc2C(F)(F)F)C3)n1 | < 800
CCOC(=O)c1ccc(CNC(=O)Nc2nc3c(s2)-c2c(cnn2-c2ccccc2C(F)(F)F)C3)o1 | < 800
Cn1cc(CNC(=O)Nc2nc3c(s2)-c2c(cnn2-c2ccccc2C(F)(F)F)C3)cn1 | < 800
O=C(NCC1CC1)Nc1nc2c(s1)-c1c(cnn1-c1cccc(F)c1C(F)(F)F)C2 | < 800

SMILES | IC50 [nM]
CCn1cc(CNC(=O)Nc2nc3c(s2)-c2c(cnn2-c2ccccc2C(F)(F)F)C3)cn1 | < 800
CCNC(=O)Nc1nc2c(s1)-c1c(cnn1-c1ccccc1C(F)(F)F)C2 | < 800
CCN1CCC[C@@H]1CNC(=O)Nc1nc2c(s1)-c1c(cnn1-c1ccccc1Cl)C2 | < 800
O=C(NCCn1nc(C(F)(F)F)cc1-c1ccco1)Nc1nc2c(s1)-c1c(cnn1-c1ccccc1C(F)(F)F)C2 | < 800
Cc1cc(-c2cccnc2)nn1CCNC(=O)Nc1nc2c(s1)-c1c(cnn1-c1ccccc1C(F)(F)F)C2 | < 800
CCn1cnc(CCNC(=O)Nc2nc3c(s2)-c2c(cnn2-c2cccc(F)c2C(F)(F)F)C3)c1 | < 800
CN(Cc1ccco1)C(=O)Nc1nc2c(s1)-c1c(cnn1-c1ccccc1C(F)(F)F)C2 | < 800
O=C(NCc1nnc(-c2ccccc2)o1)Nc1nc2c(s1)-c1c(cnn1-c1ccccc1C(F)(F)F)C2 | < 800
CN(C)C(=O)Nc1nc2c(s1)-c1c(cnn1-c1ccccc1Br)C2 | < 800
O=C(NCc1cc(C2CC2)n[nH]1)Nc1nc2c(s1)-c1c(cnn1-c1ccccc1Br)C2 | < 800
CC(C)Cn1nc(CCNC(=O)Nc2nc3c(s2)-c2c(cnn2-c2ccccc2C(F)(F)F)C3)cc1N | < 800
O=C(NCc1cc(C2CC2)n[nH]1)Nc1nc2c(s1)-c1c(cnn1-c1ccccc1Cl)C2 | < 800
CC(C)(C)OC(=O)N1CCC[C@H]1CNC(=O)Nc1nc2c(s1)-c1c(cnn1-c1ccccc1Cl)C2 | < 800
Nc1cc(CNC(=O)Nc2nc3c(s2)-c2c(cnn2-c2ccccc2C(F)(F)F)C3)nn1-c1ccccc1 | < 800
CC(C)c1noc(CCNC(=O)Nc2nc3c(s2)-c2c(cnn2-c2ccccc2C(F)(F)F)C3)n1 | < 800
O=C(Nc1nc2c(s1)-c1c(cnn1-c1ccccc1Cl)C2)N1CCCC(c2ccccc2O)C1 (centres undefined) | < 800
Nc1cc(CCNC(=O)Nc2nc3c(s2)-c2c(cnn2-c2ccccc2C(F)(F)F)C3)nn1CCO | < 800
O=C(NCc1ccccc1)Nc1nc2c(s1)-c1c(cnn1-c1ccccc1Cl)C2 | < 800
N#CCCn1nc(CCNC(=O)Nc2nc3c(s2)-c2c(cnn2-c2ccccc2C(F)(F)F)C3)cc1N | < 800
CNC(=O)c1ccc(-n2ncc3c2-c2sc(NC(=O)NCc4cc(C5CC5)n[nH]4)nc2C3)c(C(F)(F)F)c1 | < 800
CC(C)(C)OC(=O)CCNC(=O)Nc1nc2c(s1)-c1c(cnn1-c1ccccc1C(F)(F)F)C2 | < 800
Cc1nc[nH]c1-c1cccc(CNC(=O)Nc2nc3c(s2)-c2c(cnn2-c2ccccc2Cl)C3)c1 | < 800

Continued, values first:

IC50 [nM] | SMILES
< 800 | O=C(NCc1cccc(C(=O)NC2CCCCC2)c1)Nc1nc2c(s1)-c1c(cnn1-c1ccccc1Cl)C2
< 800 | CCc1noc(CCNC(=O)Nc2nc3c(s2)-c2c(cnn2-c2ccccc2Cl)C3)n1
< 800 | O=C(NCCc1cn[nH]c1)Nc1nc2c(s1)-c1c(cnn1-c1ccccc1Cl)C2
< 800 | CC(C)CNC(=O)Nc1nc2c(s1)-c1c(cnn1-c1ccccc1Cl)C2
< 800 | CC(C)n1nc(CCNC(=O)Nc2nc3c(s2)-c2c(cnn2-c2ccccc2C(F)(F)F)C3)cc1N
< 800 | NC(=O)Nc1nc2c(s1)-c1c(cnn1-c1cc(Cl)ccc1Cl)C2
< 800 | CC(C)(C)OC(=O)N1CCC[C@@H]1CNC(=O)Nc1nc2c(s1)-c1c(cnn1-c1ccccc1Cl)C2
< 800 | N#Cc1ccc(CNC(=O)Nc2nc3c(s2)-c2c(cnn2-c2ccccc2C(F)(F)F)C3)s1
< 800 | CCCNC(=O)Nc1nc2c(s1)-c1c(cnn1-c1ccc(C(=O)NC)cc1C(F)(F)F)C2
< 800 | O=C(NCC1CC1)Nc1nc2c(s1)-c1c(cnn1-c1ccccc1C(F)(F)F)C2
< 800 | CC(C)(C)OC(=O)N1CCC[C@H]1CNC(=O)Nc1nc2c(s1)-c1c(cnn1-c1ccccc1C(F)(F)F)C2
< 800 | O=C(NCCc1cn[nH]c1)Nc1nc2c(s1)-c1c(cnn1-c1ccccc1C(F)(F)F)C2
< 800 | CC(C)CCNC(=O)Nc1nc2c(s1)-c1c(cnn1-c1ccccc1Cl)C2
< 800 | Cc1nn(C)cc1CNC(=O)Nc1nc2c(s1)-c1c(cnn1-c1ccccc1C(F)(F)F)C2
< 800 | CCc1cnc(CCNC(=O)Nc2nc3c(s2)-c2c(cnn2-c2ccccc2Cl)C3)o1
< 800 | CCc1nnc(CCNC(=O)Nc2nc3c(s2)-c2c(cnn2-c2ccccc2Cl)C3)o1
< 800 | Nc1cc(CCNC(=O)Nc2nc3c(s2)-c2c(cnn2-c2ccccc2C(F)(F)F)C3)nn1-c1ccccc1
< 800 | CC(C)(C)OC(=O)N[C@H]1CC[C@H](CNC(=O)Nc2nc3c(s2)-c2c(cnn2-c2ccccc2Cl)C3)CC1
< 800 | O=C(NCc1nnn[nH]1)Nc1nc2c(s1)-c1c(cnn1-c1ccccc1Cl)C2
